The experiment concerns M. mycetomatis genome strain MM55. Kind of experiment: CLSI M38-A2 based in vitro susceptibility screening (XTT or resazurin), growth at fixed concentration. Particulars: for activity at 25 µM / activity at 100 µM / Percent fungal survival at 100 µM: Madurella mycetomatis. Format: cell-based, Madurella mycetomatis. On the technique in general: Tetrazolium assays rely on reduction of a dye to a coloured formazan, in cell work by metabolically active cells.

Setting [1] is: 25 uM, mean of replicates, MM55, read-out: Percentage survival at 25um, 25 uM mean.
The mark [2] stands for this setting: 25 uM, replicate A, MM55, read-out: Percentage survival at 25um, 25 um A.
Where [3] appears, read: 25 uM, replicate B, MM55, read-out: Percentage survival at 25um, 25 uM B.
Where [4] appears, read: 25 uM, replicate C, MM55, read-out: Percentage survival at 25um, 25 uM C.
[5] abbreviates: 100 uM, mean of replicates, MM55, read-out: Percentage survival at 100um, 100 uM mean.
The mark [6] stands for this setting: 100 uM, replicate 1, MM55, read-out: Percentage survival at 100um, 100 uM A.
[7] abbreviates: 100 uM, replicate 2, MM55, read-out: Percentage survival at 100um, 100 uM A.
The mark [8] stands for this setting: 100 uM, replicate 3, MM55, read-out: Percentage survival at 100um, 100 uM A.
[9] abbreviates: 25 uM, mean of three replicates, read-out: Percentage survival at 25um, 25 uM mean.
[10] abbreviates: 25 uM, replicate A, read-out: Percentage survival at 25um, 25 um A.
Setting [11] is: 25 uM, replicate B, read-out: Percentage survival at 25um, 25 uM B.
The mark [12] stands for this setting: 25 uM, replicate C, read-out: Percentage survival at 25um, 25 uM C.
The mark [13] stands for this setting: 100 uM, first replicate column, read-out: Percentage survival at 100um, 100 uM A.
Setting [14] is: 100 uM, mean of three replicates, read-out: Percentage survival at 100um, 100 uM mean.
The mark [15] stands for this setting: 100 uM, second replicate column, read-out: Percentage survival at 100um, 100 uM A.
Setting [16] is: 100 uM, third replicate column, read-out: Percentage survival at 100um, 100 uM A.
Where [17] appears, read: 25 uM, mean of replicates, read-out: Percentage survival at 25um, 25 uM mean.
Setting [18] is: 100 uM, mean of replicates, read-out: Percentage survival at 100um, 100 uM mean.
Setting [19] is: 100 uM, replicate 1, read-out: Percentage survival at 100um, 100 uM A.
Setting [20] is: 100 uM, replicate 2, read-out: Percentage survival at 100um, 100 uM A.
Where [21] appears, read: 100 uM, replicate 3, read-out: Percentage survival at 100um, 100 uM A.
[22] abbreviates: 100 uM, replicate 1, read-out: Percentage survival at 100um, 100 uM A (first replicate column).
Setting [23] is: 100 uM, replicate 2, read-out: Percentage survival at 100um, 100 uM A (second replicate column).
[24] abbreviates: 100 uM, replicate 3, read-out: Percentage survival at 100um, 100 uM A (third replicate column).
Setting [25] is: 25 uM, mean of three, M. mycetomatis MM55, read-out: Percentage survival at 25um, 25 uM mean.
The mark [26] stands for this setting: 25 uM, replicate A, M. mycetomatis MM55, read-out: Percentage survival at 25um, 25 um A.
The mark [27] stands for this setting: 25 uM, replicate B, M. mycetomatis MM55, read-out: Percentage survival at 25um, 25 uM B.
The mark [28] stands for this setting: 25 uM, replicate C, M. mycetomatis MM55, read-out: Percentage survival at 25um, 25 uM C.
[29] abbreviates: 100 uM, mean of three, M. mycetomatis MM55, read-out: Percentage survival at 100um, 100 uM mean.
The mark [30] stands for this setting: 100 uM, replicate 1, M. mycetomatis MM55, read-out: Percentage survival at 100um, 100 uM A (first replicate column).
Where [31] appears, read: 100 uM, replicate 2, M. mycetomatis MM55, read-out: Percentage survival at 100um, 100 uM A (second replicate column).
Where [32] appears, read: 100 uM, replicate 3, M. mycetomatis MM55, read-out: Percentage survival at 100um, 100 uM A (third replicate column).

Read-outs that look alike come from different tables or passages of the source. Peptide text beside a SMILES is read from it.

For `O=C(O)CSc1cc(NS(=O)(=O)c2cccc3cccnc23)c2ccccc2c1O` [MMV218827], the activity at 25 µM under setting [1] stood at 91.4%, the activity at 25 µM under setting [2] was 90.9%, the activity at 25 µM under setting [3] came out at 95.2% and the activity at 25 µM under setting [4] was 88.2%. Besides, the activity at 100 µM runs as follows: under setting [5], 89.8%; under setting [6], 82.4%; under setting [7], 84.7%; under setting [8], 102%.

For `Cc1c(F)cccc1NC(=O)Nc1ccc(Cl)c(S(=O)(=O)[C@H]2CCCNC2)c1O` [MMV1581034], the activity at 25 µM reads like this: under setting [1], 83.9%; under setting [2], 82%; under setting [3], 88.9%; under setting [4], 80.7%. For the same compound, the activity at 100 µM under setting [5] turned out to be 77.6%, the activity at 100 µM under setting [6] is 82.8%, the activity at 100 µM under setting [7] turned out to be 73.6% and the activity at 100 µM under setting [8] came to 76.3%.

As to `COc1ccc2c(c1OC)C(=O)OC2C1c2c(cc3c(c2OC)OCO3)CCN1C` (stereo not drawn) [MMV002780], the activity at 25 µM is, setting by setting: under setting [9], 82%; under setting [10], 86.6%; under setting [11], 81.3%; under setting [12], 78.1%. For the same compound, the activity at 100 µM was found to be 72.9% under setting [13], 72.6% under setting [14], 68.2% under setting [15] and 76.7% under setting [16].

`c1cnc(NCc2ccc(CNc3ncccn3)cc2)nc1` [MMV1580490]: the activity at 25 µM reads like this: under setting [1], 71%; under setting [2], 53.2%; under setting [3], 76.7%; under setting [4], 83.1%. Further, the activity at 100 µM under setting [5] came out at 66.3%, the activity at 100 µM under setting [6] came out at 67.3%, the activity at 100 µM under setting [7] turned out to be 32.6% and the activity at 100 µM under setting [8] worked out at 98.8%.

For the compound `CC[C@@H]1C(=O)OC[C@@H]1Cc1cncn1C` [MMV002516], the activity at 25 µM runs as follows: under setting [17], 82.7%; under setting [10], 90.3%; under setting [11], 90.6%; under setting [12], 67.2%. For the same compound, the activity at 100 µM under setting [18] turned out to be 73.8%, the activity at 100 µM under setting [19] is 82.4%, the activity at 100 µM under setting [20] was 85% and the activity at 100 µM under setting [21] is 53.9%.

For the compound `CC(N)C(=O)NC(CCCCN)C(=O)NC(CCCNC(=N)N)C(=O)NC(Cc1c[nH]cn1)C(=O)NC(Cc1c[nH]cn1)C(=O)NCC(=O)NC(Cc1ccc(O)cc1)C(=O)NC(CCCCN)C(=O)NC(CCCNC(=N)N)C(=O)NC(CCCCN)C(=O)NC(Cc1ccccc1)C(=O)NC(Cc1c[nH]cn1)C(N)=O` (stereo not drawn) [MMV1579849] (H-AKRHHGYKRKFH-NH2; configuration not given here), the “Percentage survival at 25um, 25 uM mean” value (25 uM, mean of three, M. mycetomatis MM55) came to 88.4824%. Moreover, the “Percentage survival at 25um, 25 um A” value (25 uM, replicate A, M. mycetomatis MM55) is 86.8656%. Besides, the “Percentage survival at 25um, 25 uM B” value (25 uM, replicate B, M. mycetomatis MM55) is recorded as 93.5744%. For the same compound, the “Percentage survival at 25um, 25 uM C” value (25 uM, replicate C, M. mycetomatis MM55) worked out at 85.0073%. Also, the “Percentage survival at 100um, 100 uM mean” value (100 uM, mean of three, M. mycetomatis MM55) is listed as 95.7644%. Also, under “100 uM, replicate 1, M. mycetomatis MM55”, the “Percentage survival at 100um, 100 uM A (first replicate column)” value was determined as 92.1348%. Besides, for the setting “100 uM, replicate 2, M. mycetomatis MM55”, the “Percentage survival at 100um, 100 uM A (second replicate column)” value stood at 102.447%. Moreover, the “Percentage survival at 100um, 100 uM A (third replicate column)” value (100 uM, replicate 3, M. mycetomatis MM55) came to 92.7112%.

Consider `Nc1nc(N)c2c(Sc3ccccc3)cccc2n1` [MMV021759], for which the activity at 25 µM under setting [17] worked out at 88.1%, the activity at 25 µM under setting [10] was found to be 63.3%, the activity at 25 µM under setting [11] worked out at 65.8% and the activity at 25 µM under setting [12] turned out to be 135%. Besides, the activity at 100 µM runs as follows: under setting [18], 5.59%; under setting [19], -1.97%; under setting [20], 5.6%; under setting [21], 13.1%.

Turning to `CC[C@H](NC(=O)[C@H](C)NC)C(=O)N1C[C@@H](O)C[C@H]1Cc1c(-c2[nH]c3cc(F)ccc3c2C[C@@H]2C[C@H](O)CN2C(=O)[C@H](CC)NC(=O)[C@H](C)NC)[nH]c2cc(F)ccc12` [MMV1557856], the activity at 25 µM is, setting by setting: under setting [1], 83.4%; under setting [2], 88.1%; under setting [3], 92.5%; under setting [4], 69.7%. For the same compound, the activity at 100 µM under setting [5] is 68.8%, the activity at 100 µM under setting [6] came out at 72.6%, the activity at 100 µM under setting [7] was 66.6% and the activity at 100 µM under setting [8] came to 67.1%.

In the case of `O=C(O)[C@H]1C2CCC(CC2)[C@@H]1Nc1nc(-c2c[nH]c3ncc(F)cc23)ncc1F` [MMV1593516], the activity at 25 µM reads like this: under setting [9], 97.3%; under setting [10], 98.8%; under setting [11], 105%; under setting [12], 88.2%. In addition, the activity at 100 µM under setting [13] was found to be 107%, the activity at 100 µM under setting [14] stood at 98.7%, the activity at 100 µM under setting [15] was 103% and the activity at 100 µM under setting [16] came to 86.5%.

In the case of `O=C(c1ccc(F)cc1)N1CCN2C(=O)c3ccccc3C12c1ccccc1` (stereo not drawn) [MMV1165877], the activity at 25 µM amounted to 89.2% under setting [9], 90% under setting [10], 95.6% under setting [11] and 82.1% under setting [12]. Moreover, the activity at 100 µM was 76.1% under setting [14], 85.4% under setting [22] and 71.2% under setting [24]. Under setting [23], the Percent fungal survival at 100 µM turned out to be 71.7%.

`C(=C\c1nc2ccccc2[nH]1)/c1ccc2c(c1)OCO2` [MMV1582495]: the activity at 25 µM is, setting by setting: under setting [25], 76.5%; under setting [26], 78.1%; under setting [27], 81.8%; under setting [28], 69.8%. The activity at 100 µM under setting [29] amounted to 66.2%, the activity at 100 µM under setting [30] was 59.7% and the activity at 100 µM under setting [32] was found to be 64.2%. Moreover, the Percent fungal survival at 100 µM under setting [31] turned out to be 74.5%.

For `CCNC(=O)Nc1cc2c(-c3ccnc(C)c3)ccc(CNC(=O)OC)c2cn1` [MMV1634390], the activity at 25 µM by setting is: under setting [25], 86.2%; under setting [26], 98.4%; under setting [27], 81%; under setting [28], 79.2%. For the same compound, the activity at 100 µM was determined as 52.4% under setting [29], 60.4% under setting [30] and 89.5% under setting [32]. The Percent fungal survival at 100 µM under setting [31] worked out at 7.35%.

Consider `NC(=O)c1ccc(I)c([N+](=O)[O-])c1` [MMV1581035], for which the activity at 25 µM worked out at 97.6% under setting [9], 97.2% under setting [10], 103% under setting [11] and 92.5% under setting [12]. Also, the activity at 100 µM is, setting by setting: under setting [13], 89.6%; under setting [14], 90.1%; under setting [15], 93.1%; under setting [16], 87.5%.

In the case of `CC(C)(C)c1ccc(OCCn2nc(C(=O)O)c3ccccc3c2=O)cc1` [MMV1634387], the activity at 25 µM stood at 81.2% under setting [25], 89.9% under setting [26], 84.5% under setting [27] and 69.2% under setting [28]. Further, the activity at 100 µM under setting [29] was 66.6%, the activity at 100 µM under setting [30] came to 80.6% and the activity at 100 µM under setting [32] was 81.3%. Besides, the Percent fungal survival at 100 µM under setting [31] was 37.8%.

As to `CCN(CC)CCCC(C)Nc1ccnc2cc(Cl)ccc12` (stereo not drawn) [MMV000008], the activity at 25 µM under setting [10] was 87.2%; the activity at 25 µM (read-out: Percentage survival at 25um, 25 uM B) turned out to be 72.9%; the activity at 25 µM (read-out: Percentage survival at 25um, 25 uM C) is 80.7%; the activity at 25 µM (read-out: Percentage survival at 25um, 25 uM mean) turned out to be 80.3%. Also, the activity at 100 µM stood at 62.1% under setting [14], 45.5% under setting [22], 61% under setting [23] and 79.8% under setting [24].

The record behind these values is publication PMC8815882, “Screening the pandemic response box identified benzimidazole carbamates, Olorofim and ravuconazole as promising drug candidates for the treatment of eumycetoma” (PLoS Neglected Tropical Diseases, 2022).
